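In this assay, cells in 96-well plates receive the compound at five concentrations for 48 hours. Endpoints are linearly interpolated between the surrounding concentrations. The concentration for 50% growth inhibition is given as GI50. TGI denotes the concentration required for complete inhibition of growth.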
Key:
Test in all cases: NCI-60 cell line screen, 48 h
CCRF-CEM leukemia = tested on: CCRF-CEM leukemia
SNB-19 CNS = tested on: SNB-19 CNS
OVCAR-8 ovarian = tested on: OVCAR-8 ovarian
HOP-92 NSCLC = tested on: HOP-92 NSCLC
A549 NSCLC = tested on: A549 NSCLC
HT29 colon = tested on: HT29 colon
SNB-75 CNS = tested on: SNB-75 CNS
KM12 colon = tested on: KM12 colon
HOP-62 NSCLC = tested on: HOP-62 NSCLC

Compound | TGI (CCRF-CEM leukemia) | TGI (SNB-19 CNS) | TGI (OVCAR-8 ovarian) | TGI (HOP-92 NSCLC) | TGI (A549 NSCLC) | TGI (HT29 colon) | TGI (SNB-75 CNS) | TGI (KM12 colon) | TGI (HOP-62 NSCLC) | GI50 (CCRF-CEM leukemia) | GI50 (SNB-19 CNS) | GI50 (OVCAR-8 ovarian) | GI50 (HOP-92 NSCLC) | GI50 (A549 NSCLC) | GI50 (HOP-62 NSCLC) | GI50 (HT29 colon) | GI50 (SNB-75 CNS) | GI50 (KM12 colon)
Nc1c(-c2cn(Cc3ccccc3)c3ccccc23)[n+]([O-])c2ccccc2[n+]1[O-] | > 100 µM | > 100 µM | > 100 µM | 43.1 µM | > 100 µM | > 100 µM | 61.6 µM | > 100 µM |  |  |  |  |  |  |  |  |  | 
COc1cccc2ccc(C(=O)c3ccccc3)nc12 | > 100 µM |  | > 100 µM |  | > 100 µM |  | > 100 µM | > 100 µM | > 100 µM |  |  |  |  |  |  |  |  | 
CN1C(=O)CCC2[C@@H]3CC=C4C[C@@H](O)CC[C@]4(C)C3CC[C@@]21C (stereo partly specified) | > 100 µM |  | > 100 µM |  | > 100 µM | > 100 µM | > 100 µM | > 100 µM | > 100 µM |  |  |  |  |  |  |  |  | 
COc1ccc2c(c1)[n+]([O-])c(-c1ccc([N+](=O)[O-])cc1)c(N)[n+]2[O-] | > 100 µM | > 100 µM | > 100 µM | > 100 µM | > 100 µM | > 100 µM | > 100 µM | > 100 µM | > 100 µM |  |  |  |  |  |  |  |  | 
O=C1CC(c2c(-c3ccccc3)[nH]c3ccccc23)C(=O)N1 (stereo unspecified) | > 100 µM |  | > 100 µM |  | > 100 µM | > 100 µM | > 100 µM | > 100 µM | > 100 µM |  |  |  |  |  |  |  |  | 
C#CCNC(=O)N(CC#C)N=O | > 100 µM | > 100 µM | > 100 µM | > 100 µM |  | > 100 µM | > 100 µM | > 100 µM | > 100 µM |  |  |  |  |  |  |  |  | 
COc1ccc(C(CCC(C)=O)C(=O)O)cc1OC (stereo unspecified) |  | > 100 µM | > 100 µM | > 100 µM | > 100 µM | > 100 µM | > 100 µM | > 100 µM | > 100 µM |  |  |  |  |  |  |  |  | 
N.N.NCCCCCN.O=C([O-])CCl.O=C([O-])CCl.O=C([O-])CCl.O=C([O-])CCl.[Pt+4].[Pt+4] | > 100 µM | 17.2 µM | > 100 µM | 51.6 µM | 30 µM | 42.4 µM | 11.8 µM | > 100 µM | 12.5 µM | 1.71 µM | 1.94 µM | 14 µM | 23.7 µM | 3.03 µM | 1.36 µM | 9.87 µM | 0.996 µM | 20.9 µM
COc1c(C)cc(O)cc1C=O | > 100 µM | > 100 µM | > 100 µM | > 100 µM | > 100 µM | > 100 µM | > 100 µM | > 100 µM | > 100 µM |  |  |  |  |  |  |  |  | 
CN(C)c1ccc(/C=C/C(=O)[O-])cc1.CN(C)c1ccc(/C=C/C(=O)[O-])cc1.[Cu+2] | > 100 µM | > 100 µM | > 100 µM |  | > 100 µM | > 100 µM | > 100 µM | > 100 µM | > 100 µM |  |  |  |  |  |  |  |  | 
O=[N+]([O-])c1ccc(C2CC(c3ccccc3Cl)=Nc3ccccc3S2)cc1 (stereo unspecified) | 6.77 µM |  | 5.59 µM | 29.5 µM | 33.4 µM | 45.9 µM | 44.1 µM | 13.4 µM | 68.2 µM |  |  |  |  |  |  |  |  | 
Cc1cc([N+](=O)[O-])ccc1NC(=O)C(=O)C(C(=O)c1ccccc1-c1ccccc1)C1OC(=O)c2ccccc21 (stereo unspecified) | > 100 µM | 12.3 µM | 77.1 µM | 34 µM | > 100 µM | 41.9 µM |  | 32.5 µM |  |  |  |  |  |  |  |  |  | 
c1ccc([CH2][Sn]([CH2]c2ccccc2)([O]c2cccc3cccnc23)[O]c2cccc3cccnc23)cc1 |  | 2.49 µM | 1.59 µM | 2.46 µM | 0.69 µM | 0.361 µM | 1.81 µM | 0.515 µM | 0.515 µM |  | 1.15 µM | 0.515 µM | 1.19 µM | 0.245 µM | 0.207 µM | 0.139 µM | 0.468 µM | 0.223 µM
CC(=O)Nc1ccc(/C=c2\sc3nnc(CCC(=O)Nc4ccccc4Cl)n3c2=O)cc1 | 42.9 µM | > 100 µM | > 10 µM | 57.7 µM | > 100 µM | > 100 µM |  | 46.4 µM | > 100 µM |  |  |  |  |  |  |  |  | 
Cc1ccc(S(=O)(=O)c2ccc(NC(=O)SCCC(=O)O)cc2)cc1 | > 100 µM | > 100 µM | > 100 µM |  | > 100 µM | > 100 µM | > 100 µM | > 100 µM | > 100 µM |  |  |  |  |  |  |  |  | 
COC(=O)C(=O)C(C(=O)C(=O)Nc1cccc(C(C)=O)c1)c1nc2ccc([N+](=O)[O-])cc2[nH]c1=O (stereo unspecified) | > 100 µM | > 100 µM | > 100 µM | > 100 µM | > 100 µM | > 100 µM |  | > 100 µM | > 100 µM |  |  |  |  |  |  |  |  | 
COC1OC(CO)C(O)C(OC(C)=O)C1NC(=O)N(CCCl)N=O (stereo unspecified) | > 100 µM | > 100 µM | > 100 µM |  | > 100 µM | > 100 µM | > 100 µM | > 100 µM |  |  |  |  |  |  |  |  |  | 
CCOC(=O)C1SC(=Nc2cccc(Cl)c2C)N=C1C (stereo unspecified) |  | > 100 µM | 61.9 µM | 30.4 µM | 60.4 µM | 32.6 µM | 61.4 µM | 77.7 µM | > 100 µM |  |  |  |  |  |  |  |  | 
C=C=C(C(=O)OC)S(=O)c1ccccc1[N+](=O)[O-] (stereo unspecified) | 77 µM | > 100 µM | > 100 µM |  | > 100 µM | > 100 µM | > 100 µM | > 100 µM | > 100 µM |  |  |  |  |  |  |  |  | 

— PubChem BioAssay (NCI)
